Data set [1] has as its target Recombinant ZIKV NS5 protein (ZIKV RdRp) (Zika virus, UniProt A0A024B7W1). The data set can be described thus: Primer extension polymerase activity assay. It is filed as biochemical. The settings on record: RNA P/T, then ATP, GTP, CTP, UTP 100 μM each, 30°C 2 h; 3′-dATP 100 μM, HMTU-TP 0.025-1.6 mM. The method, then: To generate RNA primer-template complexes (RNA P/T), 0.5 μM fluorescently labeled RNA primer and 2 μM unlabeled RNA template were mixed in 50 mM NaCl, incubated at 95°C for 10 min, and then slowly cooled down to room temperature. The annealed RNA P/T was stored at -30°C before use in the primer extension assay.
The primer extension assay was performed according to a previous report ([Lu et al., 2017]). For analysis of the competitive inhibition ability of HMTU-TP, 200 nM of recombinant ZIKV NS5 (Sino Biological) and 50 nM RNA P/T were incubated 30°C for 15 min in reaction buffer [10 mM Tris-HCl (pH 7.5), 10 mM DTT, 5 mM MgCl2, 5% glycerol, 0.05% Triton-X 100, and 0.02 U/μL RNasein (Promega)], and then ATP analogs [500 μM ATP (Thermo Fischer Scientific), 100 μM 3’-dATP (TriLink), or serially diluted HMTU-TP (0.025, 0.1, 0.4 or 1.6 mM)] were added and incubated at 30°C for 10 min. Primer extension reactions were initiated by the addition of ATP, GTP, CTP and UTP (100 μM each). The reactions were performed 30°C for 2 h and stopped by the addition of quenching buffer (7M Urea, 1X TBE buffer, and 50 mM EDTA). The quenched samples were denatured at 95°C for 5 min, and the primer extension products were separated on a 15% denaturing polyacrylamide gel (Invitrogen). […] The band intensities were analyzed by ImageQuant TL version 8.2.0 (Cytiva).

The next data set concerns ZIKV. Kind of data set: CPE-based antiviral assay (MTT), ZIKV in BHK-21. It is filed as cell-based. Conditions: Zika virus, BHK-21, 72 h, read-out: EC50 against ZIKV.
For another data set, the system named is WNV. Kind of data set: CPE-based antiviral assay (MTT), WNV in BHK-21. It is filed as cell-based. Conditions: West Nile virus, BHK-21, 72 h, read-out: EC50 against WNV.
Another data set has as its system DENV3. The data set can be described thus: CPE-based antiviral assay (resazurin), DENV3 in BHK-21. It is filed as cell-based, Dengue virus 3. The settings on record: Dengue virus, DENV3, BHK-21, 120 h, read-out: EC50 against DENV3. Background: The colour change of resazurin is a common sign of viable cells or microbes.
The test system of another data set is JEV. Kind of data set: CPE-based antiviral assay (MTT), JEV in BHK-21. Type of data set: cell-based. Conditions: Japanese encephalitis virus, BHK-21, 72 h, read-out: EC50 against JEV.
The test system of a further data set is DENV1. Kind of data set: CPE-based antiviral assay (resazurin), DENV1 in BHK-21. Type of data set: cell-based, Dengue virus 1. The settings on record: Dengue virus, DENV1, BHK-21, 120 h, read-out: EC50 against DENV1.
The subject of the next data set is YFV. Kind of data set: microbe, parasite or virus in culture. It is filed as cell-based. The settings on record: Yellow fever virus, BHK-21, 72 h, read-out: EC50 against YFV.
The subject of the next data set is DENV4. Kind of data set: CPE-based antiviral assay (resazurin), DENV4 in BHK-21. Conditions: Dengue virus, DENV4, BHK-21, 120 h, read-out: EC50 against DENV4. It is filed as cell-based, Dengue virus 4.
Data set [2] concerns DENV2. Kind of data set: CPE-based antiviral assay (resazurin), DENV2 in BHK-21. Conditions: Dengue virus, DENV2, BHK-21, 96 h, read-out: EC50 against DENV2. Type of data set: cell-based, Dengue virus 2.
The test system of data set [3] is DENV2. Kind of data set: MTT assay, DENV2-infected BHK-21 cells. It is filed as cell-based, Dengue virus 2. Conditions: Dengue virus. In general terms: Tetrazolium dyes change colour on reduction, which living cells bring about.
In another data set the test system is HCoV-229E. Kind of data set: Resazurin reduction assay, HCoV-229E-infected MRC5 cells.
Data set [4] in a line: Cytotoxicity against MRC5 cells. It is filed as cell-based, Human. The settings on record: human. As for the experimental part: (§1) The MTT (3-[4,5-dimethyl-2-thiazolyl]-2,5-diphenyl-2H-tetrazolium bromide) and resazurin reduction assays were carried out as previously described ([Nobori et al., 2018]; [Sanaki et al., 2019]). These were performed to calculate cell viability following viral induced CPE or cytotoxicity. Assay conditions for flaviviruses are as described in Table 2.

A further data set deals with MRC5 cells. The data set can be described thus: Cytotoxicity against MRC5 cells. Type of data set: cell-based, Human. The settings on record: for CC50: rescreening (Table 3), read-out: CC50. The method, then: as §1
In another data set the test system is HCoV-OC43. Kind of data set: Resazurin reduction assay, HCoV-OC43-infected MRC5 cells.
For another data set, the system named is SARS-CoV-2. The data set can be described thus: qRT-PCR analysis of SARS-CoV-2 in Caco-2 cells (rescreening, supernatant viral RNA). It is filed as cell-based. The settings on record: qRT-PCR analysis using Caco-2 cells, MOI 0.1, 48 h.
Data set [5] can be described thus: Cytotoxicity assay in BHK-21 cells. Type of data set: cell-based, Hamster. Conditions: hamster.
A further data set relates to BHK-21 cells. The data set can be described thus: Cytotoxicity assay in BHK-21 cells. Type of data set: cell-based, Hamster. Conditions: concentrations up to 20 μM.
A further data set relates to dogs. Also on record: method as in Lim et al., 2015; Yin et al., 2009. The settings on record: dosed orally, preclinical, ref Lim et al., 2015, Yin et al., 2009; cited from earlier work.
In another data set the test system is rats. Details: method as in Lim et al., 2015; Yin et al., 2009. Conditions: dosed orally, preclinical, ref Lim et al., 2015, Yin et al., 2009; cited from earlier work.
The mark [6] stands for this setting: Human coronavirus 229E, MRC5, read-out: HCoV-229E EC50.
Where [7] appears, read: MRC5 cells, resazurin reduction assay.
The mark [8] stands for this setting: rescreening (Table 3), read-out: CC50.
[9] abbreviates: Betacoronavirus 1, OC43, MRC5, read-out: HCoV-OC43 EC50.
Where [10] appears, read: Severe acute respiratory syndrome coronavirus 2.
The mark [11] stands for this setting: read-out: HCoV-229E EC50, MRC5 cells, resazurin reduction assay, rescreening of nine tubercidin derivatives.
Setting [12] is: read-out: HCoV-OC43 EC50, MRC5 cells, resazurin reduction assay, rescreening of nine tubercidin derivatives.

Where two headings read alike, the source gives them in different places. A value given as a limit tells only on which side of the number the result lay.

Chain of Recombinant ZIKV NS5 protein (ZIKV RdRp) (A0A024B7W1 2521-3423): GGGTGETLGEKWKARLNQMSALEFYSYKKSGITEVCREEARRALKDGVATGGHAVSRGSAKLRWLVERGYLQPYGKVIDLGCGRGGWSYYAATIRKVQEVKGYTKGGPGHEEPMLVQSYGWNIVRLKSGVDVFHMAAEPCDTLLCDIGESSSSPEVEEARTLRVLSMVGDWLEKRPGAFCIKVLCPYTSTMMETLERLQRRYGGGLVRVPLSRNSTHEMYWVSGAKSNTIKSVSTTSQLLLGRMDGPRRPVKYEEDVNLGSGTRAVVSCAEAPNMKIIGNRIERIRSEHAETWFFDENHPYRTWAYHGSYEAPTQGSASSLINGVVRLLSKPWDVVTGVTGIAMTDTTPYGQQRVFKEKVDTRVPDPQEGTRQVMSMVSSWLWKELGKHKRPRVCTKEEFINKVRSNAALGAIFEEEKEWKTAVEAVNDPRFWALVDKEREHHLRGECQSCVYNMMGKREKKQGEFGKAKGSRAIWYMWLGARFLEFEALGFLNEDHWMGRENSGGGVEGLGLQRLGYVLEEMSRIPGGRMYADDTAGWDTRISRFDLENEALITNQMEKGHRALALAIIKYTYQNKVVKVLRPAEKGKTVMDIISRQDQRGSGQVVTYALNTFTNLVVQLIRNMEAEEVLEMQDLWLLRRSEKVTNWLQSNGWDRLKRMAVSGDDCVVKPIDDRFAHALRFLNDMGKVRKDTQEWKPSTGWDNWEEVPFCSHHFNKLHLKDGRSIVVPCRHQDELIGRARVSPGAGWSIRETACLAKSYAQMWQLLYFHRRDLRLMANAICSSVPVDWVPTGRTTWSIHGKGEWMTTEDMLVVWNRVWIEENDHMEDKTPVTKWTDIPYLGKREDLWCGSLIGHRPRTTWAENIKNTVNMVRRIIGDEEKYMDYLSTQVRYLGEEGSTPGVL

In the case of `Nc1ncnc2c1ncn2[C@@H]1O[C@H](COP(=O)(O)OP(=O)(O)OP(=O)(O)O)C[C@H]1O` [3′-dATP, 3'-Deoxyadenosine-5'-Triphosphate, reference compound], the “effect on RNA extension by ZIKV RdRp” value in [1] is “prevented RNA extension”.

Usually EC50 stands for the concentration giving half of the maximal effect. For the compound `NC(=O)c1nc(F)c[nH]c1=O` [Favipiravir], the EC50 in the data set with ZIKV was 40 µM; with WNV, above 100 µM; in the data set on DENV3 it was 13 µM; in the data set on JEV it was 80 µM; in the data set with DENV1, 17 µM; in the data set on YFV, 57 µM. The EC50 in the data set on DENV4 stood at 5.2 µM; in the data set with DENV2 [2] it was 4.4 µM.

On to `Nc1ncnc2c1c(CO)cn2C1OC(COP(=O)(O)OP(=O)(O)OP(=O)(O)O)C(O)C1O` (centres unmarked) [HMTU-TP, HMTU 5′-triphosphate], for which the “effect on RNA extension by ZIKV RdRp” value in data set [1] was “incorporated into RNA template, resulting in chain termination”.

In general, CC50 refers to the concentration that lowers cell viability or growth by half. What is called EC90 is the concentration at which the effect reaches the 90% level. Higher therefore signals a need for much substance. In the case of `Nc1ncnc2c1c(/C=N\O)cn2[C@@H]1O[C@H](CO)[C@@H](O)[C@H]1O` [HUP1069, 5-formyltuberucidin oxime], the EC50 in the data set with DENV2 [3] is below 0.125 µM; in the data set with HCoV-229E (setting [6]) it was below 0.078 µM; in the data set with HCoV-OC43 (setting [9]) it was 0.055 µM. Besides, the “anti-HCoV-229E activity (in words)” value in the data set with HCoV-229E (setting [7]) was “strong antiviral activities”. Moreover, the CC50 stood at 0.74 µM in data set [4] (setting [8]) and 0.18 µM in data set [5]. The “cytotoxicity (in words)” value in the data set on MRC5 cells and in the data set on BHK-21 cells was “high cytotoxicity” throughout. Also, the “anti-HCoV-OC43 activity (in words)” value in the data set on HCoV-OC43 (setting [7]) was “strong antiviral activities”. The EC90 in the data set on SARS-CoV-2 (setting [10]) came to 0.2 µM.

In the case of `Nc1c2ccn([C@@H]3O[C@H](CO)[C@@H](O)[C@H]3O)c2nc[n+]1[O-]` [HUP1077, 3-tubercidin N-oxide], the values for the EC50 with DENV2 [3], in the data set on HCoV-229E (setting [6]) and in the data set on HCoV-OC43 (setting [9]) were 0.95 µM, 4 µM and 4.3 µM, respectively. Also, the “anti-HCoV-229E activity (in words)” value in the data set with HCoV-229E (setting [7]) is listed as “strong antiviral activities”. The CC50 in data set [4] (setting [8]) was 24 µM; in data set [5], above 20 µM. Besides, in the data set on HCoV-OC43 (setting [7]), the “anti-HCoV-OC43 activity (in words)” value is given as “strong antiviral activities”. Besides, the EC90 in the data set with SARS-CoV-2 (setting [10]) is 3.5 µM. Moreover, in the data set with BHK-21 cells, the “cytotoxicity (in words)” value is on record as “did not exhibit cytotoxicity”.

`Nc1ncnc2c1c([N+](=O)[O-])cn2[C@@H]1O[C@H](CO)[C@@H](O)[C@H]1O` [HUP1078]: the 50% effective concentration (EC50) with HCoV-229E (setting [11]) was 2 µM; in the data set on HCoV-OC43 (setting [12]), above 10 µM. Besides, the CC50 in the data set with MRC5 cells amounted to 0.33 µM. Further, in the data set with SARS-CoV-2, the 90% effect level (EC90) was put at 0.1 µM.

With `N#Cc1cn([C@@H]2O[C@H](CO)[C@@H](O)[C@H]2O)c2ncnc(N)c12` [HUP1109], the EC50 was 2.3 µM in the data set with HCoV-229E (setting [11]) and above 10 µM with HCoV-OC43 (setting [12]). Also, the CC50 with MRC5 cells was 0.59 µM. Also, the EC90 in the data set on SARS-CoV-2 worked out at 0.2 µM.

On to `Nc1ncnc2c1ccn2[C@@H]1O[C@H](CO)[C@@H](O)[C@H]1O` [HUP1136, tubercidin], for which the values for the EC50 in the data set on DENV2 [3], in the data set on HCoV-229E (setting [6]) and in the data set on HCoV-OC43 (setting [9]) were below 0.125 µM, below 0.078 µM and 0.11 µM, respectively. The “anti-HCoV-229E activity (in words)” value with HCoV-229E (setting [7]) is on record as “strong antiviral activities”. Further, the CC50 in data set [4] (setting [8]) was 0.66 µM; in [5], 0.34 µM. In addition, the “cytotoxicity (in words)” value in the data set on MRC5 cells and with BHK-21 cells was “high cytotoxicity” each time. Also, the “anti-HCoV-OC43 activity (in words)” value in the data set with HCoV-OC43 (setting [7]) is “strong antiviral activities”. The 90% effect level in the data set with SARS-CoV-2 (setting [10]) (EC90) was put at 0.087 µM.

In the case of `C#C[C@@]1(O)[C@H](O)[C@@H](CO)O[C@H]1n1ccc2c(N)ncnc21` [NITD-008, 2′-C-ethynyltubercidin], the toxicity result in the data set with dogs and in the data set on rats was “significant toxicity” each time.

On to `CCC(CC)COC(=O)[C@H](C)N[P@](=O)(OC[C@H]1O[C@@](C#N)(c2ccc3c(N)ncnn23)[C@H](O)[C@@H]1O)Oc1ccccc1` [Remdesivir, reference compound], for which the EC50 in the data set with HCoV-229E (Human coronavirus 229E, MRC5, read-out: HCoV-229E EC50, mean) stood at 0.071 µM; in the data set on HCoV-OC43 (Betacoronavirus 1, OC43, MRC5, read-out: HCoV-OC43 EC50, mean), 0.229 µM. Further, in [4] (mean from three independent experiments (Table 4), read-out: CC50 MRC5, mean), the CC50 was above 50 µM.

`NC(=O)c1ncn([C@@H]2O[C@H](CO)[C@@H](O)[C@H]2O)n1` [Ribavirin]: the EC50 stood at 31 µM with ZIKV; 52 µM with WNV; 54 µM in the data set on DENV3; 28 µM in the data set on DENV2 [3]; 33 µM in the data set with JEV; 62 µM with DENV1. Moreover, the figures for the EC50 with YFV, in the data set on DENV4 and in the data set with DENV2 [2] were 34 µM, 86 µM and 19 µM, respectively. Moreover, the cytotoxic concentration (CC50) in data set [5] is above 400 µM.

The values are drawn from article PMC8433052 (iScience, 2021).
